Measured values taken from patent EP1169641B1, “PROTEOME MINING” (THE UNIVERSITY OF VIRGINIA PATENT FOUNDATION, priority 1999, dated 2000).

Target: T1, purified human ADE2 (Homo sapiens, UniProt P22234)
T1 sequence (P22234 1-425): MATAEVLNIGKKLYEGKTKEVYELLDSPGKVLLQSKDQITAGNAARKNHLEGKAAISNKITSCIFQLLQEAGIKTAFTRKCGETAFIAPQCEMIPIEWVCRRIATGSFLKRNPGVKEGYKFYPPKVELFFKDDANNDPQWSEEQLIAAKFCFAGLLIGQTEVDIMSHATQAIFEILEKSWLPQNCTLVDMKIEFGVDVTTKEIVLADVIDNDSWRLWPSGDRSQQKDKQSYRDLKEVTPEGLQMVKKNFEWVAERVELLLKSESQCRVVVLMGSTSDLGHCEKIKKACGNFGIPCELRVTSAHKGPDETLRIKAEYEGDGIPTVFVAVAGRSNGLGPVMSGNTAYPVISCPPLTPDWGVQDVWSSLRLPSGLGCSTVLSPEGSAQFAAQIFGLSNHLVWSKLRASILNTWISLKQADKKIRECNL
Assay: Assay of purified ADE2 (apparent Ki)
Format: biochemical
Conditions: apparent Ki for ADE2, three separate experiments, read-out: Ki^-1
Description: All assays were performed against purified human ADE2. Results shown are from three separate experiments. Compounds that eluted HSP90 selectively had no effect of ADE2 activity in vitro at µM concentrations. […] Table 2. Determination of apparent Ki for ADE2 against GA structural analogs

For `CO[C@H]1/C=C\C=C(/C)C(=O)NC2=CC(=O)C(NCCN(C)C)=C(C[C@@H](C)C[C@H](OC)[C@H](O)[C@@H](C)/C=C(\C)[C@@H]1OC(N)=O)C2=O` [Inhibitor 707545], the Ki was 62.5 µM.
